Like-named read-outs stand apart in the source and are kept apart here.

Drawing on patent publication US20120277209A1, “PYRAZINE COMPOUNDS AS PHOSPHODIESTERASE 10 INHIBITORS” (Amgen Inc., priority 2009, published 2012), this text covers IC50 for 49 compounds.

The target in this assay is PDE10 (UniProt Q9Y233). Briefly: PDE10 enzyme inhibition, IMAP TR-FRET assay (MPDE10A7 Enzyme Activity and Inhibition). Format: biochemical. The essentials:
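IMAP TR-FRET read-out of PDE10 hydrolysis of fluorescein-cAMP or -cGMP (60 min, room temperature), after a 30 min compound-enzyme preincubation. Enzyme source was PDE10A or tissue homogenate. Averaged IC50s are reported as five range classes.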
A general note: TR-FRET usually uses a lanthanide donor and a delayed reading to cut background.

The mark [1] stands for this setting: IC50 class against PDE10, read-out: IC50.
[2] abbreviates: PDE10 enzyme inhibition, average IC50 data for each compound, read-out: Average IC50.
Setting [3] is: PDE10 enzyme inhibition, chiral compounds separated from racemic mixtures, read-out: IC50.

`COc1ncccc1-c1nccnc1Oc1ccc(C(O)c2nc3ccccc3[nH]2)cc1` (stereo not shown) [Example 229, (1H-BENZO[D]IMIDAZOL-2-YL)(4-(3-(2-METHOXYPYRIDIN-3-YL)PYRAZIN-2-YLOXY)PHENYL)METHANOL]: the IC50 under setting [1] is less than 25 nM.

With `OC1(c2nccnc2Oc2ccc(Nc3nc4ccccc4s3)cc2)CCOCC1` [drawing 902], the IC50 under setting [2] amounted to 0.902 nM.

For the compound `COC(=O)C1(c2nccnc2Oc2ccc(Nc3nc4ccccc4s3)cc2)CCN(C(=O)OC(C)(C)C)CC1` [drawing 869], under setting [2], the IC50 was determined as 245 nM.

For the compound `N#CCC(=O)N1CCC(c2nccnc2Oc2ccc(C(=O)c3nc4ccccc4[nH]3)cc2)CC1` [Example 247, 3-(4-(3-(4-(1H-benzo[d]imidazole-2-carbonyl)phenoxy)pyrazin-2-yl)piperidin-1-yl)-3-oxopropanenitrile], under setting [1], the IC50 was less than 25 nM.

With `O=C1CCC(c2nccnc2Oc2ccc(C(=O)c3nc4ccccc4[nH]3)cc2)CC1` [Example 195, 4-(2-(4-(1H-BENZO[D]IMIDAZOLE-2-CARBONYL)PHENOXY)PYRAZIN-3-YL)CYCLOHEXANONE], the IC50 under setting [1] was less than 25 nM.

For the compound `O=C(c1ccc(Oc2nccnc2[C@@H]2CCC[C@@H](O)C2)cc1)c1nc2ccccc2[nH]1` (stereo in doubt) [Example 274, (1H-benzo[d]imidazol-2-yl)(4-(3-((1R,3R)-3-hydroxycyclohexyl)pyrazin-2-yloxy)phenyl) methanone], the IC50 under setting [3] is less than 25 nM.

For the compound `COCC1CCN(c2nccnc2Oc2ccc(Nc3nc4ccccc4s3)cc2)C1` (racemic) [Example 88, N-(4-(3-(3-(methoxymethyl)-pyrrolidin-1-yl)pyrazin-2-yl-oxy)phenyl)benzo[d]thiazol-2-amine], under setting [1], the IC50 is less than 25 nM.

With `C[C@@H](O)C(=O)N1CCC(c2nccnc2Oc2ccc(Nc3nc4ccccc4s3)cc2)CC1` (stereo in doubt), the IC50 under setting [2] is 0.0455 nM.

Take `c1ccc2sc(Nc3ccc(Oc4nccnc4N4CCC5(CC4)OCCO5)cc3)nc2c1` [drawing 784]: under setting [2], the IC50 came out at 67.8 nM.

For `O[C@H]1CCC[C@@H](c2nccnc2Oc2ccc(Nc3nc4ccccc4s3)cc2)C1` (racemic) [Example 191, (rac)-cis-3-(3-(4-(benzo[d]thiazol-2-ylamino)phenoxy)pyrazin-2-yl)cyclohexanol], the IC50 under setting [1] is less than 25 nM.

Turning to `C[C@@H]1CN(c2nccnc2Oc2ccc(Nc3nc4ccccc4s3)cc2)CC(=O)N1` [drawing 834], the IC50 under setting [2] was 3.05 nM.

`CCOC(=O)[C@@H]1CCCN(c2nccnc2Oc2ccc(C(=O)c3nc4ccccc4[nH]3)cc2)C1` (stereo in doubt): the IC50 under setting [2] was found to be 0.773 nM.

`FC1(c2nccnc2Oc2ccc(Nc3nc4ccccc4s3)cc2)CCOCC1` [Example 204, N-(4-(3-(4-FLUOROTETRAHYDRO-2H-PYRAN-4-YL)PYRAZIN-2-YLOXY)PHENYL)BENZO[D]THIAZOL-2-AMINE]: the half-maximal inhibitory concentration (IC50) under setting [1] was less than 25 nM.

On to `N#CC1(c2nccnc2Oc2ccc(Nc3nc4ccccc4s3)cc2)CCOCC1` [drawing 867], for which, under setting [2], the half-inhibitory concentration (IC50) came out at 4.46 nM.

For `O=C(c1ccc(Oc2nccnc2Cl)cc1)c1nc2ccccc2[nH]1` [Example 3, (1H-BENZO[D]IMIDAZOL-2-YL)(4-(3-CHLOROPYRAZIN-2-YLOXY)PHENYL)METHANONE], the IC50 under setting [1] was 1000 to 5000 nM.

With `O=C(c1ccc(Oc2nccnc2C2CCOCC2)cc1)c1nc2ccccc2[nH]1` [drawing 752], the IC50 under setting [2] amounted to 0.486 nM.

Regarding `OC1CCCN(c2nccnc2Oc2ccc(Nc3nc4ccccc4s3)cc2)C1` (stereo not shown) [Example 69, 1-(3-(4-(benzo[d]thiazol-2-ylamino)phenoxy)pyrazin-2-yl)piperidin-3-ol], the IC50 under setting [1] was less than 25 nM.

Regarding `COC(=O)C1CN(c2nccnc2Oc2ccc(Nc3nc4ccccc4s3)cc2)C1` [Example 83, methyl 1-(3-(4-(benzo[d]thiazol-2-ylamino)phenoxy)pyrazin-2-yl)azetidine-3-carboxylate], the IC50 under setting [1] was less than 25 nM.

For `CN1CCCC1CCOc1nccnc1Oc1ccc(C(=O)c2nc3ccccc3[nH]2)cc1` (stereo not shown) [drawing 858], under setting [2], the IC50 was found to be 235 nM.

`O=C(c1ccc(Oc2nccnc2OCc2ccncc2)cc1)c1nc2ccccc2[nH]1` [drawing 859]: the IC50 under setting [2] worked out at 14 nM.

Turning to `O=C(c1ccc(Oc2nccnc2C2CCOCC2)cc1)c1nc2ccc(F)cc2[nH]1` [drawing 987], the IC50 under setting [2] stood at 0.593 nM.

Consider `CN(C)CC(=O)N1CCC(c2nccnc2Oc2ccc(Nc3nc4ccccc4s3)cc2)CC1` [drawing 996], for which the IC50 under setting [2] was found to be 0.705 nM.

Regarding `CCOc1nccnc1Oc1ccc(C(=O)c2nc3ccccc3[nH]2)cc1`, the IC50 under setting [2] was 46 nM.

As for `CN1CCC(c2nccnc2Oc2ccc(Nc3nc4ccccc4s3)cc2)CC1` [Example 237, N-(4-(3-(1-methylpiperidin-4-yl)pyrazin-2-yloxy)phenyl)benzo [d]thiazol-2-amine], the IC50 under setting [1] is less than 25 nM.

Turning to `Fc1cccc2nc(Nc3ccc(Oc4cnccn4)cc3)sc12` [drawing 880], the IC50 under setting [2] was 803 nM.

Turning to `O=C(c1ccc(Oc2nccnc2OCc2ccncc2)cc1)c1nc2ccccc2[nH]1` [Example 176, (1H-benzo[d]imidazol-2-yl)(4-(3-(pyridin-4-ylmethoxy)pyrazin-2-yloxy)phenyl)methanone], under setting [1], the IC50 is 100 to 250 nM.

For the compound `CN(c1ccc(Oc2nccnc2C2CCOCC2)cc1)c1nc2ccccc2s1` [Example 201, N-METHYL-N-(4-(3-(TETRAHYDRO-2H-PYRAN-4-YL)PYRAZIN-2-YLOXY)PHENYL)BENZO[D]THIAZOL-2-AMINE], under setting [1], the IC50 was less than 25 nM.

As to `O=C(c1ccc(Oc2nccnc2C2CCN(CCF)CC2)cc1)c1nc2ccccc2[nH]1` [drawing 963], under setting [2], the IC50 came to 2.5 nM.

Turning to `CC(C)(C)OC(=O)N1CCC(CO)(c2nccnc2Oc2ccc(Nc3nc4ccccc4s3)cc2)CC1` [drawing 875], the IC50 under setting [2] came to 251 nM.

`Cn1c(C(=O)c2ccc(Oc3nccnc3C3CCOCC3)cc2)nc2ccccc21` [drawing 874]: the IC50 under setting [2] was found to be 1.31 nM.

For `COc1ncccc1-c1nccnc1Oc1ccc(Nc2nc3ccccc3s2)cc1` [drawing 886], the IC50 under setting [2] turned out to be 3.67 nM.

Consider `COc1cccc(-c2nccnc2Oc2ccc(C(=O)c3nc4ccccc4[nH]3)cc2)c1` [Example 128, (1H-benzo[d]imidazol-2-yl)(4-(3-(3-methoxyphenyl)pyrazin-2-yloxy)phenyl)methanone], for which, under setting [1], the IC50 was less than 25 nM.

Turning to `CC(=O)N1CCC(c2nccnc2Oc2ccc(C(=O)c3nc4ccccc4[nH]3)cc2)CC1` [Example 224, 1-(4-(3-(4-(1H-BENZO[D]IMIDAZOLE-2-CARBONYL)PHENOXY)PYRAZIN-2-YL)PIPERIDIN-1-YL)ETHANONE], the IC50 under setting [1] was less than 25 nM.

Take `N#C[C@H]1CCN(c2nccnc2Oc2ccc(Nc3nc4ccccc4s3)cc2)C1` (stereo in doubt): the IC50 under setting [2] stood at 3.3 nM.

On to `Fc1cccc2nc(Nc3ccc(Oc4nccnc4Cl)cc3)sc12` [Example 100, N-(4-(3-chloropyrazin-2-yloxy)-phenyl)-7-fluorobenzo[d]thiazol-2-amine], for which, under setting [1], the half-maximal inhibitory concentration (IC50) was in the range of 1000 to 5000 nM.

Consider `O=C(c1ccc(Oc2nccnc2Cl)cc1)c1nc2ccc(F)cc2[nH]1` [drawing 813], for which, under setting [2], the IC50 was found to be 1580 nM.

For the compound `O=C(c1ccc(Oc2nccnc2-c2ccncc2)cc1)c1nc2ccccc2[nH]1` [Example 124, (1H-benzo[d]imidazol-2-yl)(4-(3-(pyridin-4-yl)pyrazin-2-yloxy)phenyl)methanone], the IC50 under setting [1] was less than 25 nM.

For `CC(C)n1c(C(=O)c2ccc(Oc3nccnc3N3CCOCC3)cc2)nc2ccccc21` [Example 6, (1-ISOPROPYL-1H-BENZO[D]IMIDAZOL-2-YL)(4-(3-MORPHOLINOPYRAZIN-2-YLOXY)PHENYL)METHANONE], the IC50 under setting [1] was 25 to 100 nM.

For the compound `COc1ncccc1-c1nccnc1Oc1ccc(C(=O)c2nc3ccccc3n2CCF)cc1` [Example 134, (1-(2-fluoroethyl)-1H-benzo[d]imidazol-2-yl)(4-(3-(2-methoxypyridin-3-yl)pyrazin-2-yloxy)phenyl)methanone], the IC50 under setting [1] is less than 25 nM.

Regarding `COc1cccc(-c2nccnc2Oc2ccc(C(=O)c3nc4ccccc4[nH]3)cc2)c1` [drawing 759], the IC50 under setting [2] is 36 nM.

Regarding `CC(C)(C)OC(=O)N1CCC(CO)(c2nccnc2Oc2ccc(Nc3nc4ccccc4s3)cc2)CC1` [Example 206, tert-butyl 4-(3-(4-(benzo[d]thiazol-2-ylamino)phenoxy)pyrazin-2-yl)-4-(hydroxymethyl)piperidine-1-carboxylate], under setting [1], the IC50 was 25 to 100 nM.

Turning to `O=C(c1ccc(Oc2nccnc2[C@@H]2CCC[C@H](O)C2)cc1)c1nc2ccccc2[nH]1` [drawing 907], the IC50 under setting [2] was found to be 1.16 nM.

Consider `N#C[C@H]1CCN(c2nccnc2Oc2ccc(C(=O)c3nc4ccccc4[nH]3)cc2)C1` [Example 262, (S)-1-(3-(4-(1H-benzo[d]imidazole-2-carbonyl)phenoxy)pyrazin-2-yl)pyrrolidine-3-carbonitrile], for which, under setting [3], the IC50 is less than 25 nM.

Consider `Fc1cc(-c2nccnc2Oc2ccc(Nc3nc4ccccc4s3)c(F)c2)ccn1` [Example 158, N-(2-fluoro-4-(3-(2-fluoropyridin-4-yl)pyrazin-2-yloxy)phenyl)benzo[d]thiazol-2-amine], for which the IC50 under setting [1] fell in the range of 25 to 100 nM.

As for `N#CC1CN(c2nccnc2Oc2ccc(Nc3nc4ccccc4s3)cc2)C1` [Example 93, 1-(3-(4-(benzo[d]thiazol-2-yl-amino)phenoxy)pyrazin-2-yl)-azetidine-3-carbonitrile], the IC50 under setting [1] was 25 to 100 nM.

`O=C(c1ccc(Oc2nccnc2C2CCSCC2)cc1)c1nc2ccccc2[nH]1` [Example 222, 1H-BENZO[D]IMIDAZOLE-2-YL(4-(3-(TETRAHYDRO-2H-THIOPYRAN-4-YL)PYRAZIN-2-YLOXY)PHENYL)METHANONE]: the IC50 under setting [1] is less than 25 nM.

Consider `c1ccc2sc(Nc3ccc(Oc4nccnc4[C@H]4CCCOC4)cc3)nc2c1` (stereo in doubt), for which the IC50 under setting [2] was found to be 2.43 nM.

Turning to `COC(=O)C1(c2nccnc2Oc2ccc(Nc3nc4ccccc4s3)cc2)CCN(C(=O)OC(C)(C)C)CC1` [Example 205, 1-tert-butyl 4-methyl 4-(3-(4-(benzo[d]thiazol-2-ylamino)phenoxy)pyrazin-2-yl)piperidine-1,4-dicarboxylate], the IC50 under setting [1] was less than 25 nM.

As for `O[C@@H]1C=C(c2nccnc2Oc2ccc(Nc3nc4ccccc4s3)c(F)c2)CCC1` (stereo in doubt), the IC50 under setting [2] was 7.9 nM.

As a reminder, the IC50 is the concentration that gives 50% inhibition.
